According to patent publication US8133847B2, “Pyrido[2,3-B]pyrazine derivatives useful as herbicidal compounds” (Syngenta Limited, priority 2006, dated 2012):

Experiments:
Assay in all cases: Example B1 herbicidal action, post-emergence, 96-cell seed trays, climatic chamber
Assay type in all cases: in vivo
[1] = test system: Nasturtium officinale (NAAOF); parameters: scale not given here; conditions: Application post-emergence, 1000 mg/l spray equivalent to 1000 g/ha, evaluated after 9 days (100=total damage to plant, 0=no damage to plant)
Protocol: (§1) Seeds of a variety of test species were sown in sterilised standard soil in seed trays each having 96 cells. After cultivation for 8 to 9 days cultivation (post-emergence) under controlled conditions in a climatic chamber (cultivation at 23/17° C., day/night; 13 hours light; 50-60% humidity), the plants were treated with an aqueous spray solution of 1000 mg/l of the active ingredient dissolved in 10% DMSO (dimethyl sulfoxide, CAS RN 67-68-5) as a solvent, equivalent to 1000 g/ha. The plants were grown in the climatic chamber after application at (24/19° C., day/night; 13 hours light; 50-60% humidity) and watered twice daily. After 9 days until the test was evaluated (100=total damage to plant, 0=no damage to plant)

[2] = test system: Solanum nigrum (SOLNI); conditions: Application post-emergence, 1000 mg/l spray equivalent to 1000 g/ha, evaluated after 9 days (100=total damage to plant, 0=no damage to plant)
Protocol: as §1

[3] = test system: Stellaria media (STEME); conditions: Application post-emergence, 1000 mg/l spray equivalent to 1000 g/ha, evaluated after 9 days (100=total damage to plant, 0=no damage to plant)
Protocol: as §1

[4] = test system: Amaranthus retroflexus (AMARE); conditions: Application post-emergence, 1000 mg/l spray equivalent to 1000 g/ha, evaluated after 9 days
Protocol: as §1

SMILES | damage to plant, Nasturtium officinale (NAAOF) [1] | damage to plant, Solanum nigrum (SOLNI) [2] | damage to plant, Stellaria media (STEME) [3] | damage to plant, Amaranthus retroflexus (AMARE) [4]
O=c1[nH]c2nccnc2c(O)c1-c1ccc(Cl)cc1Cl [Compound A1] | 5 | 0 | 7 | 0
O=c1[nH]c2nccnc2c(O)c1-c1ccccc1Cl [Compound A2] | 2 | 0 | 2 | 6
O=c1[nH]c2nccnc2c(O)c1-c1cc(Cl)ccc1Cl [Compound A3] | 4 | 0 | 3 | 8
O=c1[nH]c2nccnc2c(O)c1-c1cccc(Cl)c1Cl [Compound A4] | 2 | 2 | 1 | 5
O=c1[nH]c2nccnc2c(O)c1-c1c(Cl)cccc1Cl [Compound A5] | 6 | 3 | 3 | 3
Cc1ccccc1-c1c(O)c2nccnc2[nH]c1=O [Compound A6] | 0 | 5 | 0 | 0
O=c1[nH]c2nccnc2c(O)c1-c1ccccc1C(F)(F)F [Compound A8] | 7 | 0 | 2 | 5
COc1c(Cl)cc(Cl)cc1-c1c(O)c2nccnc2[nH]c1=O [Compound A9] | 3 | 4 | 8 | 7
O=c1[nH]c2nccnc2c(O)c1-c1ccc(F)cc1Cl [Compound A10] | 2 | 0 | 2 | 9
O=c1[nH]c2nccnc2c(O)c1-c1ccccc1OC(F)(F)F [Compound A13] | 0 | 0 | 3 | 5
O=c1[nH]c2nccnc2c(O)c1-c1c(Cl)cc(C(F)(F)F)cc1Cl [Compound A14] | 7 | 0 | 7 | 6
O=c1[nH]c2nccnc2c(O)c1-c1ccccc1F [Compound A15] | 2 | 0 | 0 | 0
O=c1[nH]c2nccnc2c(O)c1-c1ccc(F)cc1C(F)(F)F [Compound A17] | 7 | 5 | 5 | 8
O=c1[nH]c2nccnc2c(O)c1-c1ccc(F)cc1Br [Compound A18] | 9 | 6 | 4 | 6
O=c1[nH]c2nccnc2c(O)c1-c1cc(Cl)ccc1C(F)(F)F [Compound A19] | 5 | 7 | 5 | 6
COc1ccc(-c2c(O)c3nccnc3[nH]c2=O)c(OC)c1 [Compound A20] | 2 |  | 0 | 
O=c1[nH]c2nccnc2c(O)c1-c1c(Cl)ccc(Cl)c1Cl [Compound A21] | 6 | 5 | 3 | 7
O=c1[nH]c2ncc(Br)nc2c(O)c1-c1c(Cl)cccc1Cl [Compound A26] | 0 | 0 | 2 | 0
O=c1[nH]c2ncc(Cl)nc2c(O)c1-c1c(Cl)cccc1Cl [Compound A27] | 0 | 0 | 2 | 0

SMILES | damage to plant, Nasturtium officinale (NAAOF) [1] | damage to plant, Solanum nigrum (SOLNI) [2] | damage to plant, Stellaria media (STEME) [3] | damage to plant, Amaranthus retroflexus (AMARE) [4]
O=c1[nH]c2nccnc2c(O)c1-c1cc(Cl)cc(Cl)c1Cl [Compound A28] | 3 | 0 | 2 | 2
O=c1[nH]c2nccnc2c(O)c1-c1ccc2ccccc2c1 [Compound A29] | 0 | 2 | 3 | 2
Cc1cc(C)c(-c2c(O)c3nccnc3[nH]c2=O)c(C)c1 [Compound A30] | 3 | 0 | 4 | 7
O=c1[nH]c2nccnc2c(O)c1-c1c(Cl)cccc1C(F)(F)F [Compound A31] | 3 | 0 | 3 | 5
O=c1[nH]c2nccnc2c(O)c1-c1cccc(C(F)(F)F)c1Cl [Compound A32] | 0 | 2 | 0 | 0
Cc1ccc(Cl)c(-c2c(O)c3nccnc3[nH]c2=O)c1F [Compound A33] | 2 | 3 | 3 | 4
O=c1[nH]c2nccnc2c(O)c1-c1cc(C(F)(F)F)ccc1Cl [Compound A34] | 4 | 2 | 4 | 6
Cc1ccc(F)c(-c2c(O)c3nccnc3[nH]c2=O)c1Cl [Compound A35] | 3 | 4 | 0 | 4
CC(=O)Oc1c(-c2ccc(Cl)cc2Cl)c(=O)[nH]c2nccnc12 [Compound B1] | 0 | 0 | 3 | 8
CC(C)C(=O)Oc1c(-c2ccc(F)cc2Cl)c(=O)[nH]c2nccnc12 [Compound B2] | 0 | 0 | 0 | 5
CCC(=O)Oc1c(-c2ccc(F)cc2Cl)c(=O)[nH]c2nccnc12 [Compound B3] | 0 | 0 | 2 | 8
CC(=O)Oc1c(-c2ccccc2OC(F)(F)F)c(=O)[nH]c2nccnc12 [Compound B8] | 3 | 2 | 3 | 1
CC(=O)Oc1c(-c2c(Cl)cccc2Cl)c(=O)[nH]c2nccnc12 [Compound B10] | 6 | 0 | 0 | 8
CCC(=O)Oc1c(-c2c(Cl)cccc2Cl)c(=O)[nH]c2nccnc12 [Compound B11] | 3 | 0 | 1 | 8
CC(=O)Oc1c(-c2c(Cl)cc(C(F)(F)F)cc2Cl)c(=O)[nH]c2nccnc12 [Compound B15] | 7 | 0 | 2 | 0
CC(C)(C)C(=O)Oc1c(-c2ccccc2OC(F)(F)F)c(=O)[nH]c2nccnc12 [Compound B17] | 0 | 2 | 0 | 0
CC(=O)Oc1c(-c2c(C)cc(C)cc2C)c(=O)[nH]c2nccnc12 [Compound B33] | 5 | 0 | 3 | 5
CCn1c(=O)c(-c2ccccc2OC(F)(F)F)c(O)c2nccnc21 [Compound D5] | 7 |  | 6 | 3
